The values below come from ChEMBL document CHEMBL1140502, “Synthesis of some tropane derivatives of anticipated activity on the reuptake of norepinephrine and/or serotonin” (2007).

Common to all, as to format: functional
For test [1], the species on record is Mus musculus. The test can be described thus: Selectivity ratio of ED50 for 5-HT reuptake in mouse to ED50 for norepinephrine reuptake in mouse.
Test [2] relates to Mus musculus. The test is described as follows: Inhibition of NET-mediated norepinephrine-reuptake assessed as yohimbine induced mortality in mouse at 12.94 mM/kg, ip after 24 hrs. Set-up: scale not given: the % may be the effect or the level left.
Test [3] concerns Mus musculus. The test is described as follows: Inhibition of NET-mediated norepinephrine-reuptake assessed as yohimbine induced mortality in intraperitoneally dosed mouse after 24 hrs. To be noted: ip.
In test [4] the test system is Mus musculus. The test can be described thus: Inhibition of SERT-mediated serotonin-reuptake assessed as 5-hydroxytryptophan induced mouse head twitch at 3.24 mM/kg, ip after 20 mins. Also noted: scale not given: the % may be the effect or the level left.
Test [5] deals with Mus musculus. The test can be described thus: Inhibition of SERT-mediated serotonin-reuptake assessed as 5-hydroxytryptophan induced intraperitoneally dosed mouse head twitch after 20 mins. To be noted: ip.
The subject of test [6] is Mus musculus. The test is described as follows: Inhibition of NET-mediated norepinephrine-reuptake assessed as yohimbine induced mortality in mouse at 3.24 mM/kg, ip after 24 hrs. Set-up: scale not given: the % may be the effect or the level left.
Test [7] has as its system Mus musculus. The test is described as follows: Inhibition of NET-mediated norepinephrine-reuptake assessed as yohimbine induced mortality in mouse at 6.47 mM/kg, ip after 24 hrs. Also noted: scale not given: the % may be the effect or the level left.
For test [8], the system named is Mus musculus. The test is described as follows: Inhibition of SERT-mediated serotonin-reuptake assessed as 5-hydroxytryptophan induced mouse head twitch at 6.47 mM/kg, ip after 20 mins. Set-up: scale not given: the % may be the effect or the level left.
For test [9], the system named is Mus musculus. The test is described as follows: Inhibition of SERT-mediated serotonin-reuptake assessed as 5-hydroxytryptophan induced mouse head twitch at 12.94 mM/kg, ip after 20 mins. Also noted: scale not given: the % may be the effect or the level left.
In test [10] the test system is Mus musculus. The test is described as follows: Inhibition of SERT-mediated serotonin-reuptake assessed as 5-hydroxytryptophan induced mouse head twitch at 1.62 mM/kg, ip after 20 mins. Set-up: scale not given: the % may be the effect or the level left.
Test [11] concerns Mus musculus. The test can be described thus: Inhibition of SERT-mediated serotonin-reuptake assessed as 5-hydroxytryptophan induced mouse head twitch at 4.86 mM/kg, ip after 20 mins. Set-up: scale not given: the % may be the effect or the level left.
Test [12] has as its system Mus musculus. The test is described as follows: Inhibition of NET-mediated norepinephrine-reuptake assessed as yohimbine induced mortality in mouse at 19.42 mM/kg, ip after 24 hrs. Set-up: scale not given: the % may be the effect or the level left.
The subject of test [13] is Mus musculus. The test can be described thus: Inhibition of NET-mediated norepinephrine-reuptake assessed as yohimbine induced mortality in mouse at 25.89 mM/kg, ip after 24 hrs. Set-up: scale not given: the % may be the effect or the level left.
For test [14], the system named is Mus musculus. The test can be described thus: Inhibition of NET-mediated norepinephrine-reuptake assessed as yohimbine induced mortality in mouse at 9.71 mM/kg, ip after 24 hrs. Set-up: scale not given: the % may be the effect or the level left.

One may read the ED50 as the midpoint of the dose-response relation. As for `CNCCC(Oc1ccc(C(F)(F)F)cc1)c1ccccc1` (stereo not drawn) [FLUOXETINE], the “Ratio ED50” value in the test filed under Mus musculus [1] is listed as <0.39. Further, the Activity was 0% in the test with Mus musculus [2]; 16.67% in the test with Mus musculus [4]; 0% in the test on Mus musculus [6]; 0% in the test with Mus musculus [7]; 50% in the test on Mus musculus [8]; 100% with Mus musculus [9]. The ED50 in the test on Mus musculus [3] is > 12900 µmol/kg; with Mus musculus [5] it was 5.09 µmol/kg.

Consider `CN(C)CCCC1(c2ccc(F)cc2)OCc2cc(C#N)ccc21` (stereo not drawn) [CITALOPRAM], for which the “Ratio ED50” value in the test listed under Mus musculus [1] amounted to 0.12. Also, the Activity was found to be 16.67% in the test on Mus musculus [2]; 83.33% with Mus musculus [4]; 50% in the test on Mus musculus [10]; 0% with Mus musculus [7]; 100% in the test on Mus musculus [8]. Further, the ED50 amounted to 13700 µmol/kg in the test with Mus musculus [3] and 1.58 µmol/kg in the test with Mus musculus [5].

Turning to `CN1C2CCC1CC(Oc1ccc(C#N)cc1)(c1ccc(F)cc1)C2` (stereo not drawn), in the test listed under Mus musculus [1], the “Ratio ED50” value stood at 0.59. Besides, the Activity was 100% in the test on Mus musculus [2]; 50% in the test with Mus musculus [4]; 16.67% in the test with Mus musculus [6]; 33.33% in the test with Mus musculus [10]; 66.67% in the test on Mus musculus [7]; “Toxic” in the test on Mus musculus [8]. In addition, the Activity with Mus musculus [11] is recorded as 66.67%. For the same compound, the ED50 with Mus musculus [3] is 5020 µmol/kg; with Mus musculus [5], 2.94 µmol/kg.

With `CN1C2CCC1CC(Oc1ccc(C(F)(F)F)cc1)(c1ccccc1)C2` (stereo not drawn), in the test listed under Mus musculus [1], the “Ratio ED50” value is reported as 0.29. Further, the Activity in the test on Mus musculus [2] was 66.67%; with Mus musculus [4], 50%; in the test with Mus musculus [7], 0%; in the test on Mus musculus [8], 66.67%; in the test with Mus musculus [12], 66.67%; with Mus musculus [13], 100%. Moreover, in the test with Mus musculus [9], the Activity turned out to be 83.33%. Further, the results for the ED50 with Mus musculus [3] and with Mus musculus [5] were 11300 µmol/kg and 3.3 µmol/kg, respectively.

For the compound `CN1C2CCC1CC(Oc1ccc([N+](=O)[O-])cc1)(c1ccccc1)C2` (stereo not drawn), in the test listed under Mus musculus [1], the “Ratio ED50” value is given as 0.29. Besides, the Activity was 50% with Mus musculus [2]; 50% in the test on Mus musculus [4]; 0% with Mus musculus [6]; 33.33% with Mus musculus [10]; 50% with Mus musculus [7]; “Toxic” in the test with Mus musculus [8]. Besides, the Activity with Mus musculus [11] was 66.67%; with Mus musculus [13], “Toxic”. Also, the results for the ED50 in the test with Mus musculus [3] and in the test on Mus musculus [5] were 10300 µmol/kg and 2.94 µmol/kg, respectively.

Take `CN1C2CCC1CC(Oc1ccc(C#N)cc1)(c1ccccc1)C2` (stereo not drawn): the “Ratio ED50” value in the test listed under Mus musculus [1] came to 1.08. For the same compound, the Activity came out at 83.33% with Mus musculus [2]; 33.33% in the test with Mus musculus [4]; 50% in the test on Mus musculus [6]; 16.67% in the test with Mus musculus [10]; 50% in the test on Mus musculus [7]; 66.67% in the test on Mus musculus [8]. In addition, the ED50 in the test with Mus musculus [3] was 4080 µmol/kg; in the test with Mus musculus [5], 4.44 µmol/kg.

With `CN1C2CCC1CC(Oc1cccc(C(F)(F)F)c1)(c1ccccc1)C2` (stereo not drawn), the “Ratio ED50” value in the test filed under Mus musculus [1] is listed as 0.1. Moreover, the Activity in the test with Mus musculus [2] is 33.33%; with Mus musculus [4], 33.33%; in the test with Mus musculus [6], 0%; in the test on Mus musculus [7], 16.67%; in the test with Mus musculus [8], 50%; in the test with Mus musculus [12], “Toxic”. Moreover, the results for the Activity result in the test with Mus musculus [13] and in the test with Mus musculus [9] were “Toxic” and 83.33%, respectively. The 50% effective dose (ED50) was 53100 µmol/kg in the test with Mus musculus [3] and 5.46 µmol/kg with Mus musculus [5].

In the case of `CN1C2CCC1CC(Oc1ccc(Br)cc1)(c1ccccc1)C2` (stereo not drawn), the “Ratio ED50” value in the test listed under Mus musculus [1] is on record as 0.56. The Activity in the test with Mus musculus [2] is listed as 50%; with Mus musculus [4] it was 33.33%; with Mus musculus [7] it was 16.67%; in the test on Mus musculus [8] it was 50%; with Mus musculus [13], 100%; in the test on Mus musculus [9], 66.67%. Moreover, the ED50 with Mus musculus [3] was determined as 11400 µmol/kg.

With `CN1C2CCC1CC(Oc1ccc(Cl)cc1)(c1ccccc1)C2` (stereo not drawn), the “Ratio ED50” value in the test filed under Mus musculus [1] was determined as 0.29. Besides, the Activity stood at 33.33% with Mus musculus [2]; 33.33% in the test with Mus musculus [4]; 33.33% in the test with Mus musculus [7]; 66.67% with Mus musculus [8]; 66.67% with Mus musculus [13]; 83.33% in the test with Mus musculus [9]. Further, the ED50 came out at 16100 µmol/kg in the test on Mus musculus [3] and 4.72 µmol/kg in the test with Mus musculus [5].

For the compound `CN(C)CCCN1c2ccccc2CCc2ccc(Cl)cc21` [CLOMIPRAMINE], the “Ratio ED50” value in the test listed under Mus musculus [1] was found to be 0.35. Besides, the ED50 was found to be 5780 µmol/kg in the test with Mus musculus [3] and 2 µmol/kg in the test on Mus musculus [5]. The Activity in the test with Mus musculus [4] is 50%; in the test on Mus musculus [6], 16.67%; in the test on Mus musculus [10], 50%; in the test with Mus musculus [14] it was 66.67%; in the test with Mus musculus [8], 83.3%.
